Measurements reported in BindingDB's records for doi:10.1111/cbdd.12050 (Epizyme, 2012).

Molecular target: Histone-lysine N-methyltransferase, H3 lysine-79 specific (Homo sapiens, UniProt Q8TEK3)
Assay: Enzyme Assay
Method: Assay of DOT1L enzymatic activity were performed under balanced conditions using a radiometric assay.

Sequence of Histone-lysine N-methyltransferase, H3 lysine-79 specific (Q8TEK3 whole entry): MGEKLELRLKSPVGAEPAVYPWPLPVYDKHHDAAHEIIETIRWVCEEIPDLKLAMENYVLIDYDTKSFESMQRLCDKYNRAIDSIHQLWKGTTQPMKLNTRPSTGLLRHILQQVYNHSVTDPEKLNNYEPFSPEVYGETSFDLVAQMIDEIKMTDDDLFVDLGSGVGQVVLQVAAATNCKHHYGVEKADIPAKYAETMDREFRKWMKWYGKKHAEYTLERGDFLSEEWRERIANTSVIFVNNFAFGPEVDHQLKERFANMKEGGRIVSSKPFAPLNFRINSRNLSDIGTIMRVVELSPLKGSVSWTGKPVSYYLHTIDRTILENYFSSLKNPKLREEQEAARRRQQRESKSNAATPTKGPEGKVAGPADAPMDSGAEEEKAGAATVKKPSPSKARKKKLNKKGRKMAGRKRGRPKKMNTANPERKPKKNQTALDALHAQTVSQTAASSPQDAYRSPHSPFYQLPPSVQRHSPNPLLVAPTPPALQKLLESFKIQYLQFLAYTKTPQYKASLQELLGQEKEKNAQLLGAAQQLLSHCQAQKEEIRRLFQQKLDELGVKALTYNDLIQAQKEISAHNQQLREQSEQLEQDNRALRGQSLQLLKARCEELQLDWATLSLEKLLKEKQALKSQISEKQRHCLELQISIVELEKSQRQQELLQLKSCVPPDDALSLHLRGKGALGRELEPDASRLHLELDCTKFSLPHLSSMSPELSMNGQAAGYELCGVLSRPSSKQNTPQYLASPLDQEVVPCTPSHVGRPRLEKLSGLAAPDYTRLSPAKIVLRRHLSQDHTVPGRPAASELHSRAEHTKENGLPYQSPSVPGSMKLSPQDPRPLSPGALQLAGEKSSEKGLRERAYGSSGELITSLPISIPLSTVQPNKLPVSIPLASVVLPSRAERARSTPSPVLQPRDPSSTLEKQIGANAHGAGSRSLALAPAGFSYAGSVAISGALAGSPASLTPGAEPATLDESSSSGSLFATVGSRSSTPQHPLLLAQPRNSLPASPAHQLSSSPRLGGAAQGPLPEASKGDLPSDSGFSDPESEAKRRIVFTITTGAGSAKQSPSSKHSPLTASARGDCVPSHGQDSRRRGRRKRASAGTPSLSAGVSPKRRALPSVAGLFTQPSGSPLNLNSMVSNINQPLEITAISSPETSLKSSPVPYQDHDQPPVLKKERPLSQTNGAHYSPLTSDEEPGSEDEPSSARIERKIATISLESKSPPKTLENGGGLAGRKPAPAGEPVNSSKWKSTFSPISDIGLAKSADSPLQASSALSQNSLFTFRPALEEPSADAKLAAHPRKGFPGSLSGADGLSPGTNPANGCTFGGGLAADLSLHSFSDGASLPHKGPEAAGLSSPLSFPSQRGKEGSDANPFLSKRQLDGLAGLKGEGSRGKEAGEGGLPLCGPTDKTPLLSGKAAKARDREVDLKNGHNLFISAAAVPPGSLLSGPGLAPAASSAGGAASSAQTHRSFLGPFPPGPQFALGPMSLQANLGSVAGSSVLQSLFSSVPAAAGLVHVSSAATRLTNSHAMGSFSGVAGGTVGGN

Compound CN(CCNC(=O)Nc1ccc(C(C)(C)C)cc1)CC1OC(n2cnc3c(N)ncnc32)[C@H](O)[C@@H]1O (some centres not stated) [EPZ003647] has a Kd of 167 nM and a Ki of 845 nM.
